According to patent publication US11433086B2, “Combination of T-cell checkpoint inhibitors with inhibitors of e-selectin or CXCR4, or with heterobifunctional inhibitors of both E-selectin and CXCR4” (GlycoMimetics, Inc., priority 2016, dated 2022):

Experiments:
CXCR4 = molecular target: T1, CXCR4 (Homo sapiens, UniProt P61073); assay: Flow based competitive binding assay, anti-CXCR4 antibody binding to Raji cells; conditions: phycoerythrin-conjugated anti-CXCR4 antibody
T1 construct: host or cells: Raji cells
T1 sequence (P61073 whole entry): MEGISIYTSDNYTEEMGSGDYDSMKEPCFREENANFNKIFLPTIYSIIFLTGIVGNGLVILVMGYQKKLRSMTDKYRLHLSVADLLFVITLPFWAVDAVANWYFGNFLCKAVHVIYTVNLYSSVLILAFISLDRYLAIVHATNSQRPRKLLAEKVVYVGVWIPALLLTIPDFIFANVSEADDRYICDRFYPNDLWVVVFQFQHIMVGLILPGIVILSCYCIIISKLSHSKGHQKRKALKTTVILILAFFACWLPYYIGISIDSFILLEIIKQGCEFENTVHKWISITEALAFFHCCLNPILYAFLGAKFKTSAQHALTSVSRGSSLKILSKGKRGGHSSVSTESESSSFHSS
Experimental: (§1) FIG. 21 relates to an experiment carried out to determine the competitive binding activity (IC50) of GMI-1359 against E-selectin and CXCR4. GMI-1359 was assessed for inhibition of sialyl Le^X binding to immobilized E-selectin and α-CXCR4 antibody binding to Raji cells.
The inhibition assay to screen GMI-1359 as an antagonist of CXCR4 was a flow based competitive binding assay, which allowed the determination of […] values. Raji cells (ATCC number TIB-152) were washed twice with Hanks Balanced Saline Solution (HBSS) containing 0.05% bovine serum albumin (BSA). After the second wash, the cells were resuspended to about 2.5×10^6 cells per mL and 80 μl of cells (approximately 2×10^5 cells) were added to BD 2063 tubes. Next, 10 μl of either GMI-1359 or HBSS/BSA (as a negative control) were added to the cells and the tube was placed at room temperature for 10 minutes. Then, 10 μl of a phycoerythrin-conjugated anti-CXCR4 antibody (R&D Systems, FAB170P) or as a negative control, 10 μl of an isotype control antibody (R&D Systems, IC003P) was added to the cells with HBSS/BSA. The antibodies were allowed to bind to the cells for 1 hour at 4° C. […] Binding of the anti-CXCR4-PE antibody to the cells was assessed by flow cytometry, and the median fluorescent intensity was determined. […]

[1] = tested on: Human E-selectin/Ig chimera; assay: Competitive binding assay, sLe^a-polyacrylamide conjugate to immobilized E-selectin; conditions: sLe^a-polyacrylamide/streptavidin-HRP conjugate
Experimental: as §1
The inhibition assay to screen GMI-1359 as an antagonist of E-selectin was a competitive binding assay, which allowed the determination of IC50 values. Human E-selectin/Ig chimera was immobilized by incubation at 37° C. for 2 hour in 96-well microtiter plates. To reduce nonspecific binding, BSA was added to each well and incubated at room temperature for 2 hours. After incubation with E-selectin/Ig chimera, the plate was washed and serial dilutions of the test compounds were added to the wells in the presence of conjugates of biotinylated, sLe^a-polyacrylamide with streptavidin/horseradish peroxidase and incubated for 2 hours at room temperature. To determine the amount of sLe^a bound to immobilized E-selectin after washing, the peroxidase substrate, 3,3′,5,5′ tetramethylbenzidin (TMB) was added. After 3 minutes, the enzyme reaction was stopped by the addition of H3PO4, and the absorbance of light at a wavelength of 450 nm was determined. […]

[2] = Assessment of side effects in CT26.WT tumor-bearing mice (body weight, mortality, necropsy); type: in vivo
Experimental: Animals were weighed on each day of treatment. Individual body weights were recorded 3 times weekly. Treatment-related weight loss in excess of 20% was considered unacceptably toxic. In this report, a dosage level is described as tolerated if treatment-related weight loss (during and two weeks after treatment) is <20% and mortality during this period in the absence of potentially lethal tumor burdens is ≤10%. FIG. 6 provides a graph of the percent mean body weight change for the 12 experimental groups.
Upon death or euthanasia, all animals were necropsied to provide a general assessment of potential cause of death and perhaps target organs for toxicity. The presence or absence of metastases was also noted. Remarkable observations of clinical signs and necropsy findings were tabulated as well as individual and group toxicity findings.
This is an individual toxicity parameter.

For `CCC1CC(C(=O)NCCNCc2ccc(CN3CCCNCCNCCCNCC3)c(Br)c2)CC(OC2OC(CO)C(O)C(O[C@@H](CC3CCCCC3)C(=O)O)C2NC(C)=O)C1OC1OC(C)C(O)C(O)C1O` (stereo partly drawn) [GMI-1359], the “inhibition of anti-CXCR4 antibody binding” value (CXCR4) was “inhibits ligand binding”, the “inhibition of ligand binding to E-selectin” value [1] was “inhibits ligand binding” and the “mean weight gain during the treatment regimen” value ([2]; Groups 2-6) was 16.8%. The treatment-related mortality ([2]; Groups 2-6) was “no treatment-related mortality”, the “weight loss associated with treatment” value ([2]; Groups 2-6) was “No weight loss” and the “tolerance of treatment” value ([2]; Groups 2-6: GMI-1359 40 mg/kg IP QDx20, antibody 10 mg/kg IP Days 3,6,10,13,17) was “well tolerated”. For the same compound, the “mean weight gain during the treatment regimen” value ([2]; Groups 8-12) was 7.0%, the treatment-related mortality ([2]; Groups 8-12) was “no treatment-related mortality” and the “weight loss associated with treatment” value ([2]; Groups 8-12) was “No weight loss”. The “necropsy findings” value ([2]; Groups 8-12, Day 15) was “unremarkable”, the “tolerance of treatment” value ([2]; Groups 8-12: GMI-1359 40 mg/kg IP QDx12, antibody 10 mg/kg IP Days 3,6,10,13) was “well tolerated” and the “tolerance of treatment, summary” value ([2]; summary over both regimens / all groups) was “well tolerated”.
